Measured values: patent US10800791B2, “Triazole ACC inhibitors and uses thereof” (Gilead Apollo, LLC, priority 2015, dated 2020)
In brackets after ≈: the same amount, converted by molar mass. Like-named read-outs stand apart in the source and are kept apart here.

Tests used:
[1] = test system: Collectotrichum graminicola (Cg); experiment: Growth inhibition assay of fungal pathogens, Cg; type: cell-based; settings: 48 h, growth inhibition at 48 hours vs 2% DMSO control
How it was run: (§1)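 Inhibition percentages reflect 48 h OD600 and visual scores relative to a 2% DMSO control. Test concentrations were 50, 10, 2 ppm or 2, 0.4, 0.08 ppm final, applied to spores in 17% V8 medium.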

Septoria tritici (St) = experiment: Growth inhibition assay of fungal pathogens, St; type: cell-based; settings: Zymoseptoria tritici, 48 h, growth inhibition at 48 hours vs 2% DMSO control
How it was run: as §1

Diplodia maydis (Dm) = experiment: Growth inhibition assay of fungal pathogens, Dm; type: cell-based; settings: Stenocarpella maydis, 48 h, growth inhibition at 48 hours vs 2% DMSO control
How it was run: as §1

Botrtyis cinerea (Bc) = experiment: Growth inhibition assay of fungal pathogens, Bc; type: cell-based; settings: 48 h, growth inhibition at 48 hours vs 2% DMSO control
How it was run: as §1

C. krusei = experiment: Antifungal Activity Assay (broth microtiter MIC), C. krusei; type: cell-based, Candida krusei; settings: Pichia kudriavzevii, ATCC6258, 48 h
How it was run: (§2)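 CLSI M27-A3 broth microdilution in RPMI 1640+MOPS, final inoculum 2.5×10^3 CFU/mL from overnight Sabouraud cultures grown at 35 °C. MIC read visually at 48 h against growth control.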

C. albicans = experiment: Antifungal Activity Assay (broth microtiter MIC), C. albicans; type: cell-based, Candida albicans; settings: Candida albicans, ATCC90028, 48 h
How it was run: as §2

[2] = test system: Fusarium virguliforme (Fv); experiment: Growth inhibition assay of fungal pathogens, Fv; type: cell-based; settings: 48 h
How it was run: as §1

human (hACC2) = human (hACC2) (Homo sapiens, UniProt O00763); experiment: In vitro ACC inhibition assay (ADP-Glo), hACC2; type: biochemical; settings: Table 2b, additional results, 5 nM ACC2, 20 μM ATP, 20 μM acetyl-CoA
Sequence of human (hACC2) (O00763 whole entry): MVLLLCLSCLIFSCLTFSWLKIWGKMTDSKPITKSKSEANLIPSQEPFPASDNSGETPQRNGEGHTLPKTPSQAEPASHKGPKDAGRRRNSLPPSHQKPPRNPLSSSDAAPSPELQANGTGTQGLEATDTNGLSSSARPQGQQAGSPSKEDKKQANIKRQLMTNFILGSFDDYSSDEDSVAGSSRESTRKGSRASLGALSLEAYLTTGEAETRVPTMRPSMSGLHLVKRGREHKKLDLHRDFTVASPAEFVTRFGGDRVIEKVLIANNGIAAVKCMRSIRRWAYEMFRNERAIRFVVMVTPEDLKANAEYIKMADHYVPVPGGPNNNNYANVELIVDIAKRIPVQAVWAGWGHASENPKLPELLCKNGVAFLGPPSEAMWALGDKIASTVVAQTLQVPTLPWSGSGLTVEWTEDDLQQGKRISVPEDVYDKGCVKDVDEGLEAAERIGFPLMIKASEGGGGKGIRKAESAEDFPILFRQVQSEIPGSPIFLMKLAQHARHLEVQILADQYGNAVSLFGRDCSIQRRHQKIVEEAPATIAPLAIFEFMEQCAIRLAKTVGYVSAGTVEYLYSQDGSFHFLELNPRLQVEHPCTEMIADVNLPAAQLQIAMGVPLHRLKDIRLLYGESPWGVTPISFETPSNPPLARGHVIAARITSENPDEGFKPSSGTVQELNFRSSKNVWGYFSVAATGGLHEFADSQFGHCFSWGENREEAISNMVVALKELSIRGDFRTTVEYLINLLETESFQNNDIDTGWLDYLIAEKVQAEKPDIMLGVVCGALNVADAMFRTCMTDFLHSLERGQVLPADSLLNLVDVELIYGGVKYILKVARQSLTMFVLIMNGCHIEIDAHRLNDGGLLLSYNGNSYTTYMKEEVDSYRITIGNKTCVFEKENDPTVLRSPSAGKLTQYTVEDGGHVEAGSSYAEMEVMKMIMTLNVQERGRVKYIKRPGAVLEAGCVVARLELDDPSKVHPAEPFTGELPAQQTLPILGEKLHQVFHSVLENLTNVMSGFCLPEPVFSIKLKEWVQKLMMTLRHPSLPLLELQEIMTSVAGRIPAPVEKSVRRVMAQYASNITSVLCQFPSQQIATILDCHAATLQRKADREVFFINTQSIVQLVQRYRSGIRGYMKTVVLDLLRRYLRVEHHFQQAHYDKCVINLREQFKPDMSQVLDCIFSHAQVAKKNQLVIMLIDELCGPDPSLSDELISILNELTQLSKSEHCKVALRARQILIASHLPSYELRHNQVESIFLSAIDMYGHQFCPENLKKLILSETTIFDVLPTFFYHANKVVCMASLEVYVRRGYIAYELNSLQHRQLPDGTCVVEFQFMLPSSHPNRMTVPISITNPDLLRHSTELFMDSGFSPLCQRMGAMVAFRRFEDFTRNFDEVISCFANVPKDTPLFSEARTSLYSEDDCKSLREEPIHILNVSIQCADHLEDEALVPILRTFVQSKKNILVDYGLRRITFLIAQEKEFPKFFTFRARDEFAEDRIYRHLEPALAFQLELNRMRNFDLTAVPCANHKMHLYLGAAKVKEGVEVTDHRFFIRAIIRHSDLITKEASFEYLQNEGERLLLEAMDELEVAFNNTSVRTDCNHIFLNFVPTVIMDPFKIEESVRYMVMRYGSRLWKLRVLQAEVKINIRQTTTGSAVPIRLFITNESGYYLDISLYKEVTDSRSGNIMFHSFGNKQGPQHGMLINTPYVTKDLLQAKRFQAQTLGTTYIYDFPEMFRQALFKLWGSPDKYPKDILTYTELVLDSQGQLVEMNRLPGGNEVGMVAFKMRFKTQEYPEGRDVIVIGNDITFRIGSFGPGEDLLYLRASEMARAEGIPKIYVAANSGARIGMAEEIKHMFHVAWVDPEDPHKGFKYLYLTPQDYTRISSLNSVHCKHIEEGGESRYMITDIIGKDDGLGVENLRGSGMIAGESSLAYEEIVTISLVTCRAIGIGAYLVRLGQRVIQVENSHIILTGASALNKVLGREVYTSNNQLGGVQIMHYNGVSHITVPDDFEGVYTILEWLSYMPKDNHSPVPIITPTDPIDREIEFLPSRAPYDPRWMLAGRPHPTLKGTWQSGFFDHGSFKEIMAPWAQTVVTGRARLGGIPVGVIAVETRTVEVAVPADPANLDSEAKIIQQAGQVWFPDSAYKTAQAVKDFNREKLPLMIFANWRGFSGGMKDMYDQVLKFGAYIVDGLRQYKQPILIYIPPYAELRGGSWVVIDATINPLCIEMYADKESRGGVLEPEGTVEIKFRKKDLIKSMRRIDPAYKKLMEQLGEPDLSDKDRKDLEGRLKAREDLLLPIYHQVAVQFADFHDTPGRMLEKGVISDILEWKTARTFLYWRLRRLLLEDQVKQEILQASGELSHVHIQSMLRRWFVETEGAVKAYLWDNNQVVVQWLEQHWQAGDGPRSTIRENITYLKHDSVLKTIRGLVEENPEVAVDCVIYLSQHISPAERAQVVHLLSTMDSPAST
Method: The detailed procedure is as follows. […] 10 μL ADP glo reagent was added. […] 20 μL kinase detection reagent was added.

Rhizoctonia solani (Rs) = experiment: Growth inhibition assay of fungal pathogens, Rs; type: cell-based; settings: 48 h
[3] = test system: Phytophthora capsici (Pc); experiment: Growth inhibition assay of fungal pathogens, Pc; type: cell-based; settings: 48 h
How it was run: as §1

C. parapsilosis = experiment: Antifungal Activity Assay (broth microtiter MIC), C. parapsilosis; type: cell-based, Candida parapsilosis; settings: Lodderomyces parapsilosis, ATCC22019, 48 h
How it was run: as §2

fungal (fACC2) = fungal (fACC2) (UniProt Q00955); settings: read-out: fACC2 (in vitro ACC2 Inhibition Assay, IC50); Table 2b, additional results; ADP-Glo, 5 nM ACC2, 20 μM ATP, 20 μM acetyl-CoA
Sequence of fungal (fACC2) (Q00955 whole entry): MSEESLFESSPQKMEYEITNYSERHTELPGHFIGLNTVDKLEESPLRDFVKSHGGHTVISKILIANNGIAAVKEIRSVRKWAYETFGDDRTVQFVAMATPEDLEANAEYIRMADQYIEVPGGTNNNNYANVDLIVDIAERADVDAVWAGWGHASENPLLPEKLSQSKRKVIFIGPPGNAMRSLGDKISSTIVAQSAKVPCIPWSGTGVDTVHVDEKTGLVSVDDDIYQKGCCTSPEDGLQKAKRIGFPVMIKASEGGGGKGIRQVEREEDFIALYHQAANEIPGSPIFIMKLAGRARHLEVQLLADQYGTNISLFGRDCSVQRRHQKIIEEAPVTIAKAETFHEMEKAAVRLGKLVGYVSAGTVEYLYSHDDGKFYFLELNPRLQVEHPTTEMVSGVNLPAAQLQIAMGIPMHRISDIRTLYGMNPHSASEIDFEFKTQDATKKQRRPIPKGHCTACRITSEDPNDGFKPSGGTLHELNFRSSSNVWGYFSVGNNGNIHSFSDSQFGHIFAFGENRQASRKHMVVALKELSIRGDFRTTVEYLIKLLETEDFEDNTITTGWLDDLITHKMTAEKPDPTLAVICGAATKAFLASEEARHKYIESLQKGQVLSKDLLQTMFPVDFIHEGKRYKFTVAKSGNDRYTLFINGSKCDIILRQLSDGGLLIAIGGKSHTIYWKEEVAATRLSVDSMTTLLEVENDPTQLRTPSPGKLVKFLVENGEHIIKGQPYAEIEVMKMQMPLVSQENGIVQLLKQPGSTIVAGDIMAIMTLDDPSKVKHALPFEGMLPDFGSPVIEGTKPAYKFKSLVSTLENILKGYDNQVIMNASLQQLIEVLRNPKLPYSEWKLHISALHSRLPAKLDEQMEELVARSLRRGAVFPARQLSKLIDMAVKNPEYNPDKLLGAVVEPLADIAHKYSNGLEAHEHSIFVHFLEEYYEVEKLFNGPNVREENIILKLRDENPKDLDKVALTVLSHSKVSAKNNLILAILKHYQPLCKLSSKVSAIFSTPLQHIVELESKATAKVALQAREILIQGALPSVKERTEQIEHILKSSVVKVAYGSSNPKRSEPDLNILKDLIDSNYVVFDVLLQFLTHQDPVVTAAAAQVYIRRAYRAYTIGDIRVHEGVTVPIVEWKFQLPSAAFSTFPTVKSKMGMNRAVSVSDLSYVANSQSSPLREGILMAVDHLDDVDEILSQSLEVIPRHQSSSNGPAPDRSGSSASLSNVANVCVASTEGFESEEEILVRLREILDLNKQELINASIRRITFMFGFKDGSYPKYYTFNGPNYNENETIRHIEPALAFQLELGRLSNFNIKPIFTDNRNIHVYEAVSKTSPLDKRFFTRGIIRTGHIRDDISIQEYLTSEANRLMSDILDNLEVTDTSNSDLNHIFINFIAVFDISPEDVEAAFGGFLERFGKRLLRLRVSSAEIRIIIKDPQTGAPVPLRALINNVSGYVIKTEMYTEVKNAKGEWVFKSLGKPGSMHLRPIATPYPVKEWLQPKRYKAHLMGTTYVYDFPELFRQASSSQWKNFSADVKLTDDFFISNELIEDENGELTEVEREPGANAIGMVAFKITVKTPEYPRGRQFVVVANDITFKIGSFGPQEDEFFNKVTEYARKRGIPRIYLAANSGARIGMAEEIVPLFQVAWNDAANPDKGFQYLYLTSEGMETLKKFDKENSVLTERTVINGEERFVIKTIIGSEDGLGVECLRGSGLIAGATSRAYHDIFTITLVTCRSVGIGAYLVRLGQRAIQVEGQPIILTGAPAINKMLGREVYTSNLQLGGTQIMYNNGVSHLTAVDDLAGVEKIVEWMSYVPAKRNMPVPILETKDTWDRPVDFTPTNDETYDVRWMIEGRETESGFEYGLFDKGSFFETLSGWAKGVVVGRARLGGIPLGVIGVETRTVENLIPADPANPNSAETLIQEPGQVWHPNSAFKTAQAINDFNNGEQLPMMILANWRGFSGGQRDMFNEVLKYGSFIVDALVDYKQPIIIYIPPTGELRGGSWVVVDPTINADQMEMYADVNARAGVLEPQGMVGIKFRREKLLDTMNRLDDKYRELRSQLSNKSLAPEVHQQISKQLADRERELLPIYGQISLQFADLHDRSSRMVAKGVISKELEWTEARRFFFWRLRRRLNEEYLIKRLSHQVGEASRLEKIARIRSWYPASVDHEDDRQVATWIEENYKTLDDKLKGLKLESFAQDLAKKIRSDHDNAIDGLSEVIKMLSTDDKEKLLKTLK

[4] = test system: Fusarium moniliforme (Fm); experiment: Growth inhibition assay of fungal pathogens, Fm; type: cell-based; settings: Fusarium verticillioides, 48 h, read-out: Concentration at 90% Inhibition Fm
How it was run: as §1

[5] = Collectotrichum graminicola, read-out: Concentration at 90% Inhibition Cg
[6] = Septoria tritici, read-out: Concentration at 90% Inhibition St
[7] = Diplodia maydis, read-out: Concentration at 90% Inhibition Dm
[8] = Botrtyis cinerea, read-out: Concentration at 90% Inhibition Bc
[9] = Table 3b (additional results), ATCC 6258, 3 replicates, MIC recorded at 48 h, read-out: MIC, C. krusei ATCC 6258
[10] = Table 3b (additional results), ATCC 90028, 3 replicates, MIC recorded at 48 h, read-out: MIC, C. albicans ATCC 90028
[11] = growth inhibition at 48 hours vs 2% DMSO control, read-out: Concentration at 90% Inhibition Fv
[12] = mycelial plugs, growth inhibition at 48 hours vs 2% DMSO control, read-out: Concentration at 90% Inhibition Rs
[13] = growth inhibition at 48 hours vs 2% DMSO control, read-out: Concentration at 90% Inhibition Pc
[14] = Table 3b (additional results), ATCC 22019, 3 replicates, MIC recorded at 48 h, read-out: MIC, C. parapsilosis ATCC 22019
[15] = Fusarium moniliforme, growth inhibition at 48 hours vs 2% DMSO control
[16] = read-out: Concentration at 90% Inhibition Cg, Collectotrichum graminicola
[17] = read-out: Concentration at 90% Inhibition St, Septoria tritici
[18] = read-out: Concentration at 90% Inhibition Dm, Diplodia maydis
[19] = read-out: Concentration at 90% Inhibition Bc, Botrtyis cinerea
[20] = read-out: MIC, C. krusei ATCC 6258, Table 3b (additional results), 3 replicates, MIC recorded at 48 h
[21] = read-out: MIC, C. albicans ATCC 90028, Table 3b (additional results), 3 replicates, MIC recorded at 48 h
[22] = read-out: Concentration at 90% Inhibition Fv, Fusarium virguliforme, growth inhibition at 48 hours vs 2% DMSO control
[23] = read-out: Concentration at 90% Inhibition Rs, Rhizoctonia solani, mycelial plugs, growth inhibition at 48 hours vs 2% DMSO control
[24] = read-out: Concentration at 90% Inhibition Pc, Phytophthora capsici, growth inhibition at 48 hours vs 2% DMSO control
[25] = read-out: MIC, C. parapsilosis ATCC 22019, Table 3b (additional results), 3 replicates, MIC recorded at 48 h

SMILES	IC90 [1, 5] [µg/mL]	IC90 (Septoria tritici (St); [6]) [µg/mL]	IC90 (Diplodia maydis (Dm); [7]) [µg/mL]	IC90 (Botrtyis cinerea (Bc); [8]) [µg/mL]	MIC (C. krusei; [9]) [µg/mL]	MIC (C. albicans; [10]) [µg/mL]	IC90 [2, 11] [µg/mL]	IC50 (human (hACC2)) [nM]	IC90 (Rhizoctonia solani (Rs); [12]) [µg/mL]	IC90 [3, 13] [µg/mL]	MIC (C. parapsilosis; [14]) [µg/mL]	IC50 (fungal (fACC2)) [nM]	IC90 [4, 15] [µg/mL]	further results
COc1ccc(F)cc1[C@H](Cn1c(=O)n(C(C)(C)C(=O)NC(C)C)c(=O)c2c(C)c(-n3nccn3)sc21)O[C@H]1C[C@@H](O)C1 [Compound I-239]	2 (≈ 3.25 µM)	> 50	2 (≈ 3.25 µM)	2 (≈ 3.25 µM)	0.25 to 1 (≈ 0.407 to 1.63 µM)	0.25 to 1 (≈ 0.407 to 1.63 µM)	0.4 (≈ 0.651 µM)	10 to 40	0.08 (≈ 0.13 µM)	> 50	0.25 to 1 (≈ 0.407 to 1.63 µM)	1 to 5	0.08 (≈ 0.13 µM)	–
CCc1ccc(F)cc1[C@@H](Cn1c(=O)n(C(C)(C)C(=O)NC(C)C)c(=O)c2c(C)c(-n3nccn3)sc21)OC[C@H](C)C#N [Compound I-245]	0.08 (≈ 0.131 µM)	> 50	2 (≈ 3.28 µM)	0.08 (≈ 0.131 µM)	> 4.01	2.01 to 4 (≈ 3.3 to 6.56 µM)	0.08 (≈ 0.131 µM)	1 to 5	0.08 (≈ 0.131 µM)	> 50	2.01 to 4 (≈ 3.3 to 6.56 µM)	0.3 to 1	0.08 (≈ 0.131 µM)	–
Cc1c(-n2nccn2)sc2c1c(=O)n(C(C)(C)C(=O)NC(C)C)c(=O)n2C[C@H](OCCC#N)c1cc(F)ccc1O [Compound I-246]	2 (≈ 3.43 µM)	> 50	10 (≈ 17.1 µM)	2 (≈ 3.43 µM)	2.01 to 4 (≈ 3.44 to 6.85 µM)	> 4.01	2 (≈ 3.43 µM)	1 to 5	0.4 (≈ 0.685 µM)	10 (≈ 17.1 µM)	2.01 to 4 (≈ 3.44 to 6.85 µM)	0.3 to 1	0.4 (≈ 0.685 µM)	–
CCc1ccc(F)cc1[C@@H](Cn1c(=O)n(C(C)(C)C(=O)NC(C)C)c(=O)c2c(C)c(-n3nccn3)sc21)OC[C@@H](C)C#N [Compound I-247]	0.08 (≈ 0.131 µM)	> 50	2 (≈ 3.28 µM)	0.4 (≈ 0.656 µM)	> 4.01	2.01 to 4 (≈ 3.3 to 6.56 µM)	0.4 (≈ 0.656 µM)	1 to 5	0.08 (≈ 0.131 µM)	> 50	2.01 to 4 (≈ 3.3 to 6.56 µM)	1 to 5	0.08 (≈ 0.131 µM)	–
COc1ccc(F)cc1[C@H](Cn1c(=O)n(C(C)(C)C(=O)NC(C)C)c(=O)c2c(C)c(-n3nccn3)sc21)OCCS(C)(=O)=O [Compound I-248]	–	–	–	–	–	–	–	10 to 40	–	–	–	0.3 to 1	–	IC90 [1, 16]: 0.4 µg/mL (≈ 0.615 µM); IC90 (Septoria tritici (St); [17]): > 50 µg/mL; IC90 (Diplodia maydis (Dm); [18]): 0.4 µg/mL (≈ 0.615 µM); IC90 (Botrtyis cinerea (Bc); [19]): 2 µg/mL (≈ 3.07 µM); MIC (C. krusei; [20]): 1.01 to 2 µg/mL (≈ 1.55 to 3.07 µM); MIC (C. albicans; [21]): 1.01 to 2 µg/mL (≈ 1.55 to 3.07 µM); IC90 [2, 22]: 2 µg/mL (≈ 3.07 µM); IC90 (Rhizoctonia solani (Rs); [23]): 0.08 µg/mL (≈ 0.123 µM); IC90 [3, 24]: 10 µg/mL (≈ 15.4 µM); MIC (C. parapsilosis; [25]): 1.01 to 2 µg/mL (≈ 1.55 to 3.07 µM); IC90 [4]: 0.4 µg/mL (≈ 0.615 µM)
COc1ccccc1[C@H](O)Cn1c(=O)n(C(C)(C)C(=O)NC(C)C)c(=O)c2c(C)c(-n3nccn3)sc21 [Compound I-251]	–	–	–	–	–	–	–	10 to 40	–	–	–	1 to 5	–	IC90 [1, 16]: > 50 µg/mL; IC90 (Septoria tritici (St); [17]): > 50 µg/mL; IC90 (Diplodia maydis (Dm); [18]): > 50 µg/mL; IC90 (Botrtyis cinerea (Bc); [19]): 10 µg/mL (≈ 19 µM); MIC (C. krusei; [20]): 0.25 to 1 µg/mL (≈ 0.475 to 1.9 µM); MIC (C. albicans; [21]): 1.01 to 2 µg/mL (≈ 1.92 to 3.8 µM); IC90 [2, 22]: 2 µg/mL (≈ 3.8 µM); IC90 (Rhizoctonia solani (Rs); [23]): 2 µg/mL (≈ 3.8 µM); IC90 [3, 24]: > 50 µg/mL; MIC (C. parapsilosis; [25]): 0.25 to 1 µg/mL (≈ 0.475 to 1.9 µM); IC90 [4]: 2 µg/mL (≈ 3.8 µM)
CCNC(=O)[C@@H](C)n1c(=O)c2c(C)c(-n3nccn3)sc2n(C[C@H](OCCC#N)c2cc(F)ccc2OC)c1=O [Compound I-252]	0.08 (≈ 0.14 µM)	> 50	0.4 (≈ 0.702 µM)	2 (≈ 3.51 µM)	> 4.01	> 4.01	0.4 (≈ 0.702 µM)	1 to 5	0.08 (≈ 0.14 µM)	10 (≈ 17.6 µM)	2.01 to 4 (≈ 3.53 to 7.02 µM)	1 to 5	0.08 (≈ 0.14 µM)	–
